# Data from PubChem BioAssay AID2060513 (Molecular Pharmacology Branch, DTP, NCI, 2025).
# Values joined by “and” are separate entries in the source; they are usually repeats but may differ in a detail not shown here. Equal entries are not always repeated.
# System: 299254-011-R-J1-PDC complex spheroids viability
# Test: Anticancer human tumor 299254-011-R-J1-PDC patient-derived melanoma cell line growth inhibition [GQUAD]
# Details: for viability, T/C: stronger effect = lower value
# Description: DNA G-quadruplex Stabilizer Agents in Combinations in Complex Spheroids
# A high-throughput screen of multi-cell type tumor spheroids was designed to identify active combinations of DNA G-quadruplex stabilizer agents and targeted small molecules. Complex spheroids include a stromal component modeled by human endothelial cells (HUVEC) and fibroblasts modeled by human mesenchymal stem cells (MSCs). The concentration ranges selected for each drug and investigational agent were based upon clinically achievable concentrations if the clinical Cmax of the agent was known.
# Compounds. The drugs and investigational agents: pidnarulex (CX-5461; NSC782164), APTO-253 (NSC789042), BRACO-19 (NSC847499), peposertib (NSC802822), ceralasertib (NSC780249), elimusertib (NSC800525), camonsertib (NSC841442), AZD-1390 (NSC803789), olaparib (NSC753686), talazoparib (NSC767125), ART-558 (NSC835418), sotorasib (NSC818433), MRTX-1133 (NSC836407), SN-38 (NSC673596), topotecan (NSC609699), etoposide (NSC141540), doxorubicin (NSC123127), gemcitabine (NSC613327), 5-fluorouracil (NSC19893), paclitaxel (NSC125973), vemurafenib (NSC761431), panobinostat (NSC761190), R-306465 (JNJ-16241199; NSC773264), adavosertib (NSC754352), TP-3654 (NSC805149), carboplatin (NSC241240), KSQ-4279 (NSC840948), and staurosporine (NSC755774) were obtained from the National Cancer Institute (NCI) Developmental Therapeutics Program Chemical Repository (34). The FDA-approved anticancer drug set is available from the NCI Developmental Therapeutics Program. […] The stock solutions were prepared in dimethyl sulfoxide (DMSO, Sigma-Aldrich, St. Louis, MO, cat. D2650) at 800-fold the tested concentration and stored at -70 degrees C prior to their use. All drugs and investigational agents were tested over a range starting from a high concentration at or near the clinical Cmax and decreasing in half-log increments. If the clinical Cmax for an agent had not been determined, the highest concentration tested was 10 microM.
# 2.3 Cell Culture. All cells were maintained in an incubator at 37 degrees C and 5% CO2 with 95% humidity. The PDC lines were cultured according to standard operating procedures established by the NCI PDMR. All PDCs were thawed and cultured in Matrigel-coated flasks prepared with a working solution of 1X Ham's F-12 nutrient mix, without supplementation (Invitrogen, cat. 11765054), 100 U/mL penicillin-streptomycin (Invitrogen, cat. 15140122), and 2.5% Matrigel (Corning Inc., cat. 354248) for the first three passages. The 857933-349-R-J2-PDC line was cultured in 6C/Colon 1B media, which includes advanced DMEM/F-12 (Thermo Fisher Scientific, cat. 12634028), 10 mM HEPES (Thermo Fisher Scientific, cat. 15630080), 1X GlutaMAX supplement (Thermo Fisher Scientific, cat. 35050061), 0.1 mg/mL primocin (InvivoGen, cat. ant-pm-2), 10% defined fetal bovine serum, heat inactivated (HyClone Laboratories Inc., cat. SH30070.03HI), 50% L-WRN conditioned media (ATCC, cat. CRL-3276), 1.25 mM N-Acetyl-L-cysteine (Sigma-Aldrich, cat. A9165), 10 mM nicotinamide (Sigma-Aldrich, cat. N0636), 1X B-27 supplement (Thermo Fisher Scientific, cat. 17504044), 1X N-2 supplement (Thermo Fisher Scientific, cat. 17502048), 10 microM Y-27632 dihydrochloride (Tocris Bioscience, cat. 1254), and 50 ng/mL human EGF recombinant protein (Thermo Fisher Scientific, cat. PHG0311). The 485176-168-R4-J1-PDC line was cultured in Panc media, which includes all 6C/Colon 1B media components plus 100 ng/mL human FGF-10 (Thermo Fisher Scientific, cat. 100-26), 500 nM SB-431542 (Selleckchem, cat. S1067), and gastrin (Tocris, cat. 3006).
# […]
# [1] = curve of first compound, second compound 0.0316 µM
# [2] = curve of first compound, second compound 0.1 µM
# [3] = curve of first compound, second compound 0.316 µM
# [4] = curve of first compound, second compound 1 µM
# [5] = curve of first compound, second compound 3.16 µM
# [6] = curve of first compound, second compound 10 µM
# [7] = second compound 0.0316 µM, first compound 0.0316 µM
# [8] = second compound 0.0316 µM, first compound 0.1 µM
# [9] = second compound 0.0316 µM, first compound 0.316 µM
# [10] = second compound 0.0316 µM, first compound 1 µM
# [11] = second compound 0.0316 µM, first compound 3.16 µM
# [12] = second compound 0.0316 µM, first compound 10 µM
# [13] = second compound 0.1 µM, first compound 0.0316 µM
# [14] = second compound 0.1 µM, first compound 0.1 µM
# [15] = second compound 0.1 µM, first compound 0.316 µM
# [16] = second compound 0.1 µM, first compound 1 µM
# [17] = second compound 0.1 µM, first compound 3.16 µM
# [18] = second compound 0.1 µM, first compound 10 µM
# [19] = second compound 0.316 µM, first compound 0.0316 µM
# [20] = second compound 0.316 µM, first compound 0.1 µM
# [21] = second compound 0.316 µM, first compound 0.316 µM
# [22] = second compound 0.316 µM, first compound 1 µM
# [23] = second compound 0.316 µM, first compound 3.16 µM
# [24] = second compound 0.316 µM, first compound 10 µM
# [25] = second compound 1 µM, first compound 0.0316 µM
# [26] = second compound 1 µM, first compound 0.1 µM
# [27] = second compound 1 µM, first compound 0.316 µM
# [28] = second compound 1 µM, first compound 1 µM
# [29] = second compound 1 µM, first compound 3.16 µM
# [30] = second compound 1 µM, first compound 10 µM
# [31] = second compound 3.16 µM, first compound 0.0316 µM
# [32] = second compound 3.16 µM, first compound 0.1 µM
# [33] = second compound 3.16 µM, first compound 0.316 µM
# [34] = second compound 3.16 µM, first compound 1 µM
# [35] = second compound 3.16 µM, first compound 3.16 µM
# [36] = second compound 3.16 µM, first compound 10 µM
# [37] = second compound 10 µM, first compound 0.0316 µM
# [38] = second compound 10 µM, first compound 0.1 µM
# [39] = second compound 10 µM, first compound 0.316 µM
# [40] = second compound 10 µM, first compound 1 µM
# [41] = second compound 10 µM, first compound 3.16 µM
# [42] = second compound 10 µM, first compound 10 µM
# 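Note: spheroids exposed to the agents for seven days before readout.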
# 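Throughout, for viability, T/C: percent viability relative to DMSO vehicle control wells = 100%.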
structure (smiles),measurement,setting,value
Cc1cccc(N(C)C(=O)C2C(O)CCN2c2nc(C)cc(C(F)(F)F)c2C#N)c1 (stereo not drawn) + Cc1[nH]c2ccc(F)cc2c1-c1nc2c3cccnc3c3ncccc3c2[nH]1,IC50,[1],> 10000 nM
same,IC50,[2],> 10000 nM
same,IC50,[3],> 10000 nM
same,IC50,[4],> 10000 nM
same,IC50,[5],> 10000 nM
same,IC50,[6],> 10000 nM
same,"viability, T/C",[7],104%
same,"viability, T/C",[8],104%
same,"viability, T/C",[9],112%
same,"viability, T/C",[10],90%
same,"viability, T/C",[11],82.1%
same,"viability, T/C",[12],90.6%
same,"viability, T/C",[13],86.7%
same,"viability, T/C",[14],95.2%
same,"viability, T/C",[15],92.1%
same,"viability, T/C",[16],77.5%
same,"viability, T/C",[17],90.4%
same,"viability, T/C",[18],112%
same,"viability, T/C",[19],114%
same,"viability, T/C",[20],114%
same,"viability, T/C",[21],100%
same,"viability, T/C",[22],88.5%
same,"viability, T/C",[23],137%
same,"viability, T/C",[24],82.8%
same,"viability, T/C",[25],109%
same,"viability, T/C",[26],85.7%
same,"viability, T/C",[27],83.9%
same,"viability, T/C",[28],109%
same,"viability, T/C",[29],103%
same,"viability, T/C",[30],102%
same,"viability, T/C",[31],91.3%
same,"viability, T/C",[32],122%
same,"viability, T/C",[33],91.4%
same,"viability, T/C",[34],98.6%
same,"viability, T/C",[35],116%
same,"viability, T/C",[36],94.5%
same,"viability, T/C",[37],93.8%
same,"viability, T/C",[38],116%
same,"viability, T/C",[39],103%
same,"viability, T/C",[40],89.5%
same,"viability, T/C",[41],84.9%
same,"viability, T/C",[42],84.1%
CC1COCCN1c1cc(C2(O)CC3CCC(C2)O3)c2cnn(-c3ccn[nH]3)c2n1 (stereo not drawn) + Cc1cnc(CNC(=O)c2c(=O)c3ccc(N4CCCN(C)CC4)nc3n3c2sc2ccccc23)cn1,IC50,[1],89.3 nM
same,IC50,[2],104 nM
same,IC50,[3],< 31.6 nM
same,IC50,[4],< 31.6 nM
same,IC50,[5],< 31.6 nM
same,IC50,[6],< 31.6 nM
same,"viability, T/C",[7],94.4%
same,"viability, T/C",[8],41.6%
same,"viability, T/C",[9],28.7%
same,"viability, T/C",[10],11.4%
same,"viability, T/C",[11],13%
same,"viability, T/C",[12],3.95%
same,"viability, T/C",[13],58.6%
same,"viability, T/C",[14],51.5%
same,"viability, T/C",[15],18.6%
same,"viability, T/C",[16],14.1%
same,"viability, T/C",[17],9.97%
same,"viability, T/C",[18],4.33%
same,"viability, T/C",[19],31.4%
same,"viability, T/C",[20],32%
same,"viability, T/C",[21],14.3%
same,"viability, T/C",[22],15.9%
same,"viability, T/C",[23],11%
same,"viability, T/C",[24],4.06%
same,"viability, T/C",[25],22.3%
same,"viability, T/C",[26],21%
same,"viability, T/C",[27],17.1%
same,"viability, T/C",[28],12.8%
same,"viability, T/C",[29],14.8%
same,"viability, T/C",[30],6.33%
same,"viability, T/C",[31],18.8%
same,"viability, T/C",[32],22.3%
same,"viability, T/C",[33],17.1%
same,"viability, T/C",[34],10.6%
same,"viability, T/C",[35],13.1%
same,"viability, T/C",[36],7.02%
same,"viability, T/C",[37],0.16%
same,"viability, T/C",[38],0.22%
same,"viability, T/C",[39],0.23%
same,"viability, T/C",[40],0.17%
same,"viability, T/C",[41],0.29%
same,"viability, T/C",[42],0.23%
CCCS(=O)(=O)Nc1ccc(F)c(C(=O)c2c[nH]c3ncc(-c4ccc(Cl)cc4)cc23)c1F,"viability, T/C",compound 0.0316 µM,130% and 120% and 109%
same,"viability, T/C",compound 0.1 µM,101% and 98.5% and 102%
same,"viability, T/C",compound 0.316 µM,92.2% and 107% and 95.9%
same,"viability, T/C",compound 1 µM,107% and 104% and 112%
same,"viability, T/C",compound 3.16 µM,80.6% and 104% and 103%
same,"viability, T/C",compound 10 µM,39.9% and 45.2% and 46.6%
same,IC50,curve of compound,7690 nM and 9110 nM and 9320 nM
Cc1[nH]c2ccccc2c1CCNCc1ccc(/C=C/C(=O)NO)cc1,"viability, T/C",compound 0.000999 µM,99.9% and 96.8% and 89.5%
same,"viability, T/C",compound 0.00316 µM,87.9% and 114% and 103%
same,"viability, T/C",compound 0.00999 µM,94.2% and 94.3% and 96%
same,"viability, T/C",compound 0.0316 µM,96.9% and 88.8% and 85.4%
same,"viability, T/C",compound 0.0999 µM,60.7% and 72.7% and 67.3%
same,"viability, T/C",compound 0.316 µM,19.8% and 19.1% and 16.6%
same,IC50,curve of compound,135 nM and 159 nM and 147 nM
CN(C)c1ccc(Nc2c3ccc(NC(=O)CCN4CCCC4)cc3nc3cc(NC(=O)CCN4CCCC4)ccc23)cc1,"viability, T/C",compound 0.0316 µM,95.2% [middle of 12 runs]
same,"viability, T/C",compound 0.316 µM,95.5% [middle of 12 runs]
same,"viability, T/C",compound 3.16 µM,106% [middle of 12 runs]
same,"viability, T/C",compound 10 µM,98.3% [middle of 12 runs]
same,IC50,"compound alone, run of 02/26/2024",> 10000 nM
